Reference: patent US20210051949A1, “SOLID AGROCHEMICAL COMPOSITIONS” (UPL LTD, priority 2018, published 2021)

What was measured:
[1] = Comparative study of degradation of metsulfuron methyl in compositions with 2,4-D acid or 2,4-D sodium salt plus picloram (accelerated heat stability); type: physicochemical; settings: for Active content: picloram, metsulfuron methyl
Protocol: Degradation of Metsulfuron Methyl in Compositions with 2,4-D Acid and 2,4-D Sodium Salt: Comparative Study
A comparative study of degradation of metsulfuron methyl in composition of 2,4-D acid and 2,4-D sodium salt in combination with picloram was carried out. The results are summarized in the below table (Table 1):
The study was conducted at 0 days as well as after 14 days at 54° C. (accelerated heat stability conditions).

[2] = Physical parameters (active content, suspensibility, dispersibility, moisture, wet sieve) of a composition of 2,4-D acid, metsulfuron methyl and picloram acid; type: physicochemical; parameters: unit not given here
Source text: Physical Parameters of a Composition Comprising 2, 4-D Acid, Metsulfuron Methyl and Picloram Acid:
Physical parameters such as suspensibility, dispersibility has been tested for a composition prepared according to the present invention are listed in the below table (Table 2).
As evident from the Table 2, the physical parameters such as suspensibility and dispersibility of the compositions prepared according to the present invention satisfies the requirement for a stable formulation.

[3] = composition with 2,4-D acid, 0 days
[4] = composition with 2,4-D acid, 14 days at 54° C.
[5] = composition with 2,4-sodium salt, 0 days
[6] = composition with 2,4-sodium salt, 14 days at 54° C.

Compound	Active content [1, 3] [gm]	Active content [1, 4] [gm]	% degradation after 14 days [1, 4] [%]	Active content [1, 5] [gm]	Active content [1, 6] [gm]	% degradation after 14 days [1, 6] [%]	Active ingredient (content) ([2]; 14 Day AHS)	Suspensibility ([2]; 14 Day AHS)	Active ingredient (content) ([2]; Ambient)	Suspensibility ([2]; Ambient)
O=C(O)COc1ccc(Cl)cc1Cl [2,4-D acid, 2,4-dichlorophenoxy acetic acid]	333.03	325.01	2.41	325.28	328.01	0.84	319.6	99.10	320.5	99.96
COC(=O)c1ccccc1S(=O)(=O)NC(=O)Nc1nc(C)nc(OC)n1 [Metsulfuron methyl]	46.06	44.42	–	49.78	43.88	–	39.30	99.75	42.3	100.90
Nc1c(Cl)c(Cl)nc(C(=O)O)c1Cl [Picloram acid, Picloram]	98.96	98.05	0.92	95.65	95.59	0.06	105.5	99.61	106.5	100.50
